{"source": "paper PMC6933938", "about": "“Comparative physiological, metabolomic, and transcriptomic analyses reveal developmental stage-dependent effects of cluster bagging on phenolic metabolism in Cabernet Sauvignon grape berries” (BMC Plant Biology, 2019)", "molecular_target": "T1, VviFLS4 (Vitis vinifera, UniProt Q2PHJ7)", "T1 construct": "gene FLS4; pET-48b(+), printed as C-terminal 6xHis tag fusion; E. coli BL21(DE3), Ni2+ column; tag removal not mentioned", "T1 sequence (Q2PHJ7 1-335)": "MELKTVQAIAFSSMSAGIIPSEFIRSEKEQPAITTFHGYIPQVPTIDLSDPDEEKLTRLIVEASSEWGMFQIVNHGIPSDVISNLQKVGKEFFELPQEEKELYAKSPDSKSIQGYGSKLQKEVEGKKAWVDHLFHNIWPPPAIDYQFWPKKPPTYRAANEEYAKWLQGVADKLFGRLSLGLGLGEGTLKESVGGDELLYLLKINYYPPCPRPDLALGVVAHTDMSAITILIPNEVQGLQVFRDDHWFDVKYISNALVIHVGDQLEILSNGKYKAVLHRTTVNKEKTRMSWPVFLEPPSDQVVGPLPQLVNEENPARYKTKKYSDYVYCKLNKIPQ", "assay": "HPLC-MS product analysis", "format": "biochemical", "conditions": "converted to kaempferol; 0.5 uM substrate, 10 mM alpha-ketoglutaric acid, 0.25 mM FeSO4, 10 mM ascorbic acid, 100 mM NaH2PO4 pH 6.0, 25 C, 1 h"}
{"smiles": "O=C1c2c(O)cc(O)cc2O[C@H](c2ccc(O)cc2)[C@H]1O", "note": "[dihydrokaempferol]", "values": [{"measurement": "HPLC-MS product analysis", "value": "DHK into kaempferol, and dihydroquercetin (DHQ) into quercetin, respectively"}]}
